Data on 21 compounds can be found in ChEMBL document CHEMBL1201862, “PubChem BioAssay data set” (2004).

For orientation: IC50 means the midpoint of a concentration-inhibition curve. As a reminder, the AC50 is the midpoint of the concentration-response curve, whichever way the signal moves. For orientation: EC50 means the concentration that produces a half-maximal response. The term CC50 denotes the concentration at which the toxic effect on the cells reaches its halfway point.

Calls of active or inactive are those of the source. A value given as a limit tells only on which side of the number the result lay.

Data set [1] concerns the target Glyceraldehyde-3-phosphate dehydrogenase (Homo sapiens, UniProt P04406).
Data set [2] concerns the target T1, Alkaline phosphatase, tissue-nonspecific isozyme (Homo sapiens, UniProt P05186).
T1 sequence (P05186 whole entry): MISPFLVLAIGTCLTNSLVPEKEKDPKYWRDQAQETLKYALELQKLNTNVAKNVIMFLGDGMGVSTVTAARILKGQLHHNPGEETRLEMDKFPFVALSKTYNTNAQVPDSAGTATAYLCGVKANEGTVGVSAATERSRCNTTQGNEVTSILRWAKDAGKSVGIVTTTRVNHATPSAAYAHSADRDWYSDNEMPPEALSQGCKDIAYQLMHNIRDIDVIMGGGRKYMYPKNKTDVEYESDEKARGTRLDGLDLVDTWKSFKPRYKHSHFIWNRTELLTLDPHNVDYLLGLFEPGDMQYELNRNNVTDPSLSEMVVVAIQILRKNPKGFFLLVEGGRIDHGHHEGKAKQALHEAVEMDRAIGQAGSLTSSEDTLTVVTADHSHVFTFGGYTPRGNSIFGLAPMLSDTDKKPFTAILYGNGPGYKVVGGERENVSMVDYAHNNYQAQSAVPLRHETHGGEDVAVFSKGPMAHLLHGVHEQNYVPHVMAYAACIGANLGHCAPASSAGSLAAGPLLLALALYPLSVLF
Nature of the data set: human TNAP enzyme inhibitors, SAR follow-up, biochemical, luminescent, dose response (AID 1056).

Data set [3] concerns the target T2, Ubiquitin-conjugating enzyme E2 N (Homo sapiens, UniProt P61088).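 Note: Dose-response confirmation in a TR-FRET assay detecting UBC13-driven polyubiquitin chain formation, inhibition measured.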
T2 sequence (P61088 whole entry): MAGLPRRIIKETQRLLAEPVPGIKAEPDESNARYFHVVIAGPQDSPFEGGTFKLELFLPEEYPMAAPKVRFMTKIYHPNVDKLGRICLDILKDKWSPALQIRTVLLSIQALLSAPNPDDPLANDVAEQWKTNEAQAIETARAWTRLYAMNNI
The class given is functional.

In a further data set the test system is Escherichia coli. Kind of data set: microbe, parasite or virus in culture.
The subject of data set [4] is HEK293. Kind of data set: NOD1 signaling inhibitors, primary screen, cell-based, luminescence, uHTS (AID 1578). The class given is functional. To be noted: Homo sapiens.
The test system of data set [5] is HEK293. Kind of data set: cells. In kind it is functional, cell-based. To be noted: Homo sapiens.
Data set [6] concerns HEK293. Kind of data set: NOD2 signaling inhibitors in MDP-stimulated cells, cell-based, uHTS, luminescence (AID 2001). In kind it is functional. Particulars: Homo sapiens.
Data set [7] has as its system HEK293. Kind of data set: cells. The class given is functional, cell-based. Particulars: Homo sapiens. The source holds these as a separate data set.
The next data set has as its target T3, Leucine aminopeptidase (Plasmodium falciparum 3D7, UniProt Q8IL11).
T3 sequence (Q8IL11 whole entry): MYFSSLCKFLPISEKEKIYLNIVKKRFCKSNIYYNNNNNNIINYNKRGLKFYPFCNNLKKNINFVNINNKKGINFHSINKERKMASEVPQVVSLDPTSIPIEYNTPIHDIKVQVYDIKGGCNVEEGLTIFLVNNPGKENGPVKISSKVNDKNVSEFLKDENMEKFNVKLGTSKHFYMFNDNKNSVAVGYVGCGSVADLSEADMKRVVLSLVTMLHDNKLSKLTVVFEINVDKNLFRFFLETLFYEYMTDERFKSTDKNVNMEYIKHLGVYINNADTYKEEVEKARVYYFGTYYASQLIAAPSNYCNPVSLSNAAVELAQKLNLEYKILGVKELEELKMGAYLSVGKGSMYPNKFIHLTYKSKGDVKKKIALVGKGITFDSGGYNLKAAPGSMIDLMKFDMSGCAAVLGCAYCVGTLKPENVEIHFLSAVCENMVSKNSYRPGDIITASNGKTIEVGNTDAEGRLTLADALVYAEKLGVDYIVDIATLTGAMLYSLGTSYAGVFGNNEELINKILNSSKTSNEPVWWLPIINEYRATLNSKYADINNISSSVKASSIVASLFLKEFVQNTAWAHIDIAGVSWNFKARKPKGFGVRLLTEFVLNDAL
Nature of the data set: P. falciparum M17LAP inhibitors, primary screen, biochemical, fluorogenic H-Leu-NHMec substrate, 1536-well (AID 1619). In kind it is functional.

The target in a further data set is Genome polyprotein (dengue virus type 2, UniProt P29990). Kind of data set: Dengue-2 NS5 methyltransferase inhibitors, primary screen, biochemical, confirmation dose response (AID 588689). In kind it is functional.
Data set [8] is described as follows: HEp-2 cell cytotoxicity, dose response, cytotoxicity control for RSV inhibitor project, HTS (AID 2410). In kind it is functional. Particulars: human respiratory syncytial virus.
For the next data set, the target named is T4, Coagulation factor XII (Homo sapiens, UniProt P00748).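 Note: activated factor XIIa alpha cleaving a fluorogenic AMC peptide substrate; inhibitor potency from loss of enzyme activity.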
T4 sequence (P00748 whole entry): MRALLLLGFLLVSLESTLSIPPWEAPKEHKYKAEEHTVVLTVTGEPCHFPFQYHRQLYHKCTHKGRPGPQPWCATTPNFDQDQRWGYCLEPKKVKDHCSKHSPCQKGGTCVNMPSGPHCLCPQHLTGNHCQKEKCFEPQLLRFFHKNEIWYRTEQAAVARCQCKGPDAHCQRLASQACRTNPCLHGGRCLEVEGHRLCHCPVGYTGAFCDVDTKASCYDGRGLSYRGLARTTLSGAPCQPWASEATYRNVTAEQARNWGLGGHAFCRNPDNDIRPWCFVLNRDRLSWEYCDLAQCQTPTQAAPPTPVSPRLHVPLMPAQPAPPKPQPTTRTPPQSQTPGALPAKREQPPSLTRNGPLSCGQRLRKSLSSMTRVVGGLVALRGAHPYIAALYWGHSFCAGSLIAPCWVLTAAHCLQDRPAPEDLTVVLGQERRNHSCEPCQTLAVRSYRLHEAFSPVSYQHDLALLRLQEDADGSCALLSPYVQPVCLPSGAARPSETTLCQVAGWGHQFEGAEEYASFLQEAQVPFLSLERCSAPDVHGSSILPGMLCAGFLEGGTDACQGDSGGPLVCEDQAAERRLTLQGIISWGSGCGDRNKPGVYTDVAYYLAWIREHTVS
In kind it is functional.

In data set [9] the target is T5, High affinity choline transporter 1 (Homo sapiens, UniProt Q9GZV3).
T5 sequence (Q9GZV3 whole entry): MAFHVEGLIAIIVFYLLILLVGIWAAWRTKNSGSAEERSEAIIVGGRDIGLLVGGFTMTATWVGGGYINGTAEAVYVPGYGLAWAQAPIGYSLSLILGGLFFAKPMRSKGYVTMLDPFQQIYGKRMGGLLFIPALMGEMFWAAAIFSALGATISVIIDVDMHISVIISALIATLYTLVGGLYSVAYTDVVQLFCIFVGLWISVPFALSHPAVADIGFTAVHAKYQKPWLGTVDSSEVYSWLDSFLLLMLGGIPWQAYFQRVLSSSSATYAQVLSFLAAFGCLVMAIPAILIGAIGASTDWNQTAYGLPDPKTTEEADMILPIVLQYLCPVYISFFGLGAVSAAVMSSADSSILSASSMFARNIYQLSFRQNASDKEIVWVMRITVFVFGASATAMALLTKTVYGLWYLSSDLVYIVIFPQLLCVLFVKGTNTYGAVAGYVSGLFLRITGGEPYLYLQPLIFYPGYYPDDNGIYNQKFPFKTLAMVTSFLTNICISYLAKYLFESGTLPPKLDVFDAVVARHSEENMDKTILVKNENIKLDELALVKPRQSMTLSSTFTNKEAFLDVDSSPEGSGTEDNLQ
Kind of data set: CHT inhibitors, dose response, cell-based, 5-point CRC, membrane potential dye (AID 504840). The class given is functional.

The target of data set [10] is T6, Calpain-2 catalytic subunit (Sus scrofa, UniProt P43367).
T6 sequence (P43367 whole entry): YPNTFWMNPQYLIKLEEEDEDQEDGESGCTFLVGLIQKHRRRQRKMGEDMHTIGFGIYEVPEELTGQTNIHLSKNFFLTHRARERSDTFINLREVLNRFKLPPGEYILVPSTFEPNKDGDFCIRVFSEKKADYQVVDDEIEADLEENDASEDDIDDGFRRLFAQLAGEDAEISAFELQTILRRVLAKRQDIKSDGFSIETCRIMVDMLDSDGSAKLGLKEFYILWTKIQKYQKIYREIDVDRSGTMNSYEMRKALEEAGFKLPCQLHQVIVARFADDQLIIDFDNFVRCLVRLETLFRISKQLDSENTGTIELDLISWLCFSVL
Kind of data set: pig calpain II inhibitor potency, dose response, biochemical, fluorogenic peptide substrate (AID 1420). In kind it is functional.

The target in data set [11] is T7, DNA repair and recombination protein RAD54-like (Homo sapiens, UniProt Q92698).
T7 sequence (Q92698 whole entry): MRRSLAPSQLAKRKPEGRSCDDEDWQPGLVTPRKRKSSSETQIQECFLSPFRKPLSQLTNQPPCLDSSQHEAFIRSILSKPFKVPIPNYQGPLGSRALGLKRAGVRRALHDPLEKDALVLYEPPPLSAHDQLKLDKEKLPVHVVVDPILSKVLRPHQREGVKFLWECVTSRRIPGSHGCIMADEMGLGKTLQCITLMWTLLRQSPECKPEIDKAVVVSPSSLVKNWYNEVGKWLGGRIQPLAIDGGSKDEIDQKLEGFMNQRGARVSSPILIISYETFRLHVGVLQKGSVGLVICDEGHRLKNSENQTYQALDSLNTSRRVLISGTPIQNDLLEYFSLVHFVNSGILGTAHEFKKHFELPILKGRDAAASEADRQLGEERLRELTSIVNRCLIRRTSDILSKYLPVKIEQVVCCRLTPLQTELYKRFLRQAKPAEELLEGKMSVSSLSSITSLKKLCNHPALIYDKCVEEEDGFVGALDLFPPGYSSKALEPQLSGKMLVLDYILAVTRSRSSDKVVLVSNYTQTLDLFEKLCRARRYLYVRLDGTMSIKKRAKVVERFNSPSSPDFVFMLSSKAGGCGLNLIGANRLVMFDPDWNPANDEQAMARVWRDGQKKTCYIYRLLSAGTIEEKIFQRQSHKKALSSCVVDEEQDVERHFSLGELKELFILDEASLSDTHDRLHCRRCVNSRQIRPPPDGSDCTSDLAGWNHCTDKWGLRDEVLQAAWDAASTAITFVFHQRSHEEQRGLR
Kind of data set: inhibitors of human RAD54 branch migration, confirmation, biochemical, fluorescence, cherry-picked samples, dose series (AID 651657). The class given is functional.

In another data set the target is Nonstructural protein 1 (Influenza A virus, UniProt Q194T2). In kind it is functional, Influenza A virus (A/California/07/2009(H1N1)).
The next data set concerns the target Cytochrome P450 3A4 (Homo sapiens, UniProt P08684).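 Note: CYP3A4 tested as one member of a cytochrome P450 panel screen.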

Sequence of Glyceraldehyde-3-phosphate dehydrogenase (P04406 whole entry): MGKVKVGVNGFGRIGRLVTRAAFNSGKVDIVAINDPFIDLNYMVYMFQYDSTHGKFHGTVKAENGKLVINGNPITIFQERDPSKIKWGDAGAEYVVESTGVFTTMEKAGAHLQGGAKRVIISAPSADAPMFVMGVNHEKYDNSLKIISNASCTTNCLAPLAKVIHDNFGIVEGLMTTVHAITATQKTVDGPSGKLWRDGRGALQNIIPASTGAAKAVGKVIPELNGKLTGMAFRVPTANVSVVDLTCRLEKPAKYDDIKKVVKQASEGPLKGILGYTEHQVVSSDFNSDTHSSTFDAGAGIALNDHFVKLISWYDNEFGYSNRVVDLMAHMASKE
Sequence of Cytochrome P450 3A4 (P08684 whole entry): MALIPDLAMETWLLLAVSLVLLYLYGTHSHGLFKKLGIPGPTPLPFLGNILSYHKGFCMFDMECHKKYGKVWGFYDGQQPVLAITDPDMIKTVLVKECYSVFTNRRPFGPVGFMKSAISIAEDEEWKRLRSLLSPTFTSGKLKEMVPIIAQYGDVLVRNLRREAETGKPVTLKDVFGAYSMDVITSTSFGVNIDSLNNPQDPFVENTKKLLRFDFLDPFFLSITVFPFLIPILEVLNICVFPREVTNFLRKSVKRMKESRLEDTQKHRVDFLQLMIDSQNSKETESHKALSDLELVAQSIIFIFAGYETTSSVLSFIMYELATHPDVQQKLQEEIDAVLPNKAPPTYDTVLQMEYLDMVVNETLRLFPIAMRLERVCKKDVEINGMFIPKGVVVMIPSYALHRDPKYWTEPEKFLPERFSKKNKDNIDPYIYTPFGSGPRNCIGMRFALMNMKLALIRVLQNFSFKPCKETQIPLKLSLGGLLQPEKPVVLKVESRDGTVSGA
Sequence of Genome polyprotein (P29990 2492-3391 limits assumed): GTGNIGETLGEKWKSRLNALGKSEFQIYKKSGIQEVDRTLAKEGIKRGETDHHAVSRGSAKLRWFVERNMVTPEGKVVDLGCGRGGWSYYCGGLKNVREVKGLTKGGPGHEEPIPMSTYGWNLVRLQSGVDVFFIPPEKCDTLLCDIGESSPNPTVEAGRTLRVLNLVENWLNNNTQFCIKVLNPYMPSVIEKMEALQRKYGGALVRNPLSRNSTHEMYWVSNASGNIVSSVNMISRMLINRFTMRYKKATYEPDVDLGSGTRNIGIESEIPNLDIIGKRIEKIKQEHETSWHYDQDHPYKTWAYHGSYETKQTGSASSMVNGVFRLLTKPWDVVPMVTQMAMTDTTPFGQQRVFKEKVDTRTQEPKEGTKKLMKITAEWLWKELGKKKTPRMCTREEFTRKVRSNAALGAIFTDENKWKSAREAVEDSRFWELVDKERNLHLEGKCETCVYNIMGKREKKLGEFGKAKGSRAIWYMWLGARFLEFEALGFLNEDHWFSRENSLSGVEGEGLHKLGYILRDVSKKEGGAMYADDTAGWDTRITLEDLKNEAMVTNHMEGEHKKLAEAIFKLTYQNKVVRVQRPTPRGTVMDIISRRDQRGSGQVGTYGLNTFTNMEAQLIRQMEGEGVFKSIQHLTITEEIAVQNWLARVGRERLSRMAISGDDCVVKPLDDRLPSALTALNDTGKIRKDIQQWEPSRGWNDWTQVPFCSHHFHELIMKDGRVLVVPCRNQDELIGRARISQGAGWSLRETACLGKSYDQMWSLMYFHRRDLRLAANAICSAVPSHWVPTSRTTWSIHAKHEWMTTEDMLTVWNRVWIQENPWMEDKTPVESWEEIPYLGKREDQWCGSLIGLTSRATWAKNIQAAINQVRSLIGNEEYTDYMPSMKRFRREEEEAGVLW
Sequence of Nonstructural protein 1 (Q194T2 whole entry): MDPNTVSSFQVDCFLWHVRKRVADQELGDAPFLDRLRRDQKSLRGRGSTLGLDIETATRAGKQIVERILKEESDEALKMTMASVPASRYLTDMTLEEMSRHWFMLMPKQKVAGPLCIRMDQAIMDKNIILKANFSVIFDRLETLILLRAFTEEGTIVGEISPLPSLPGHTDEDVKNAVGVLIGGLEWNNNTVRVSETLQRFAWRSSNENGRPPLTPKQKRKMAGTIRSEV

For `CCOC(=O)c1nnc(-c2ccccc2)o1`, the IC50 in data set [1] was > 100 µM (not active); in [2], > 100 µM (inactive). In the case of `Cc1ccc2c(c1)C1CN(C)CCC1N2C(=O)CCCN1C(=O)c2cccc3cccc(c23)C1=O` (centres undefined), the IC50 in data set [3] is > 20 µM (inactive). `CCNC(=O)OCC12CC3CC(CC(C3)C1)C2`: the AC50 in the data set on Escherichia coli was 33.5 µM (active). With `COc1ccc(NC(=O)Nc2nnc(-c3ccncc3)s2)cc1`, the EC50 in the data set on HEK293 [4] was 5.39 µM (active). The IC50 in the data set on HEK293 [5] is 5.85 µM (active); in the data set with HEK293 [6] it was 6.01 µM (active); with HEK293 [7], > 20 µM (inactive). For the compound `O=C1/C(=C/c2ccc(C(=O)O)cc2)CCC/C1=C\c1ccc(C(=O)O)cc1`, the IC50 is 62.7 µM (active) on Leucine aminopeptidase and > 100 µM (active) at Genome polyprotein.

As to `CCn1c2ccc(C)cc2c2nnc(SCCN3CCOCC3)nc21`, the AC50 in the data set on Escherichia coli is 89.7 µM (active). As to `Cc1c(NC(=S)NC(=O)c2ccc(-c3ccc(Cl)cc3)o2)cccc1C(=O)O`, on Leucine aminopeptidase, the IC50 was 29.7 µM (active). In addition, in data set [8], the CC50 is 35.4 µM (active).

For the compound `Cc1ccc(-c2[nH]nc3c2C(c2ccoc2)C(C#N)=C(N)O3)cc1C` (centres undefined), the IC50 on Leucine aminopeptidase was 3.65 µM (active).

With `Cc1ccc(NC(=O)NCc2ccc3c(c2)OCO3)cc1`, the IC50 at Coagulation factor XII is > 50 µM (inactive). Turning to `O=C(O)C1CCN(c2nc(-c3ccccc3)nc3c2oc2ccccc23)CC1`, the values for the IC50 (on Leucine aminopeptidase; in data set [9]) were 30.1 µM (active) and 9.12 µM (active), respectively. Consider `COc1ccc(OC)c(CNc2ccc([N+](=O)[O-])cc2C)c1`, for which the IC50 in [10] was 8.98 µM (not active); on Coagulation factor XII, > 50 µM (inactive). Turning to `COc1ccccc1NS(=O)(=O)c1cc(NC(C)=O)ccc1N1CCCCC1`, the AC50 in the data set with Escherichia coli was 30.4 µM (active). For `CN(C(=O)COC(=O)c1cc(-c2ccc(Br)cc2)[nH]n1)C1CCCCC1`, the figures for the IC50 in data set [1] and in [2] were > 100 µM (not active) and > 100 µM (inactive), respectively. Take `COc1ccc(NC(=O)CN2C(=O)CSC(C)C2=O)cc1` (centres undefined): the IC50 at Leucine aminopeptidase is 3.83 µM (active).

Take `CCc1nc2ccccc2c(C(=O)OCc2nc3ccccc3c(=O)[nH]2)c1C`: the IC50 in [3] is > 20 µM (inactive). As for `O=C(N[C@H](C(=O)O)c1ccccc1)C1CCC(Cn2nnc3ccccc3c2=O)CC1` (some centres undefined), the IC50 on Coagulation factor XII is > 50 µM (inactive).

In the case of `c1cncc(-n2cnnn2)c1`, the IC50 is > 100 µM (not active) in data set [1] and > 100 µM (inactive) in data set [2].

As for `C=CC(=O)Nc1ccc(N(C)c2ccnc(Nc3ccc(N4CCN(C)CC4)cc3)n2)cc1`, the AC50 in [11] was 21 µM (active). The IC50 in data set [3] was > 20 µM (inactive); at Nonstructural protein 1, 25.5 µM (active).

`COc1ccccc1N1CCN(C/C(O)=C(\C#N)c2nc(-c3ccccc3)cs2)CC1`: the IC50 on Coagulation factor XII was > 50 µM (inactive). `CC(C)/N=C/c1c(O)[nH]c2ccccc12`: at Coagulation factor XII, the IC50 was > 50 µM (inactive). As to `Cn1c(=O)[nH]c2ncn(C)c2c1=O` [PARAXANTHINE], the AC50 entry at Cytochrome P450 3A4 is “inconclusive”; in the data set on Escherichia coli, 23.3 µM (active).
